Activity calls are given as the source filed them. The rule behind the calls is not given here.
Assays:
[1] = Binding affinity in goat brain tubulin assessed as equilibrium dissociation constant incubated for 45 mins by fluorescence titration method; parameters: species or system Capra hircus
[2] = tested on: MCF7; assay: Antiproliferative activity against human MCF7 cells assessed as inhibition of cell proliferation incubated for 72 hrs by SRB assay; assay type: functional, cell-based; details: MCF7, 72 h
[3] = tested on: MDA-MB-231; assay: Antiproliferative activity against human MDA-MB-231 cells assessed as inhibition of cell proliferation incubated for 72 hrs by SRB assay; assay type: functional, cell-based; details: MDA-MB-231, 72 h
[4] = Cytotoxicty against HEK cells incubated for 72 hrs by SRB assay; assay type: toxicity, cell-based; details: human
[5] = tested on: MDA-MB-231; assay: Inhibition of colony formation in human MDA-MB-231 cells incubated for 24 hrs by crystal violet staining based colony formation assay; assay type: functional, cell-based; details: dose 1-20 µM
[6] = tested on: MDA-MB-231; assay: Induction of apoptosis in human MDA-MB-231 cells assessed as membrane blebbing at 6.65 uM (IC50) measured after 72 hrs by fluorescence microscopic analysis; assay type: functional, cell-based
[7] = tested on: MDA-MB-231; assay: Induction of apoptosis in human MDA-MB-231 cells assessed as increase in fragmented nuclei at 6.65 uM (IC50) measured after 72 hrs by fluorescence microscopic analysis; assay type: functional, cell-based
[8] = tested on: MDA-MB-231; assay: Induction of apoptosis in human MDA-MB-231 cells assessed as late apoptotic cells at 6.56 uM incubated for 72 hrs by Annexin/FITC based FACS analysis (reference value: 3%); assay type: functional
[9] = tested on: MDA-MB-231; assay: Induction of apoptosis in human MDA-MB-231 cells assessed as increase in TUNEL positive nuclei at 6.56 uM by TUNEL assay relative to control; assay type: functional, cell-based
[10] = tested on: MDA-MB-231; assay: Induction of cell cycle arrest in human MDA-MB-231 cells assessed as increase in accumulation of cells at G2/M phase at 6.65 uM incubated for 72 hrs by PI staining based FACS analysis relative to control; assay type: functional
[11] = tested on: Mitochondrial membrane; assay: Induction of mitochondrial membrane potential loss in human MDA-MB-231 cells assessed as decrease in red fluorescence incubated for 48 hrs by JC-1 staining based fluorescence microscopic analysis; assay type: cell membranes
[12] = tested on: Mitochondrial membrane; assay: Induction of mitochondrial membrane potential loss in human MDA-MB-231 cells assessed as increase in blue fluorescence incubated for 48 hrs by […] staining based fluorescence microscopic analysis; assay type: cell membranes
[13] = tested on: Mitochondrial membrane; assay: Induction of mitochondrial membrane potential loss in human MDA-MB-231 cells assessed as increase in green fluorescence incubated for 48 hrs by rhodamine-123 staining based fluorescence microscopic analysis; assay type: cell membranes
[14] = Toxicity in BALB/c athymic mouse xenografted with human MCF-7 cells assessed as change in body weight at 150 mg/kg, po administrated daily for 30 days; assay type: organism-based; details: in vivo, 720 h, time 30 day
[15] = Toxicity in BALB/c athymic mouse assessed as effect on hepatic lobules morphology at 150 mg/kg, po by Hematoxylin and eosin staining based analysis; assay type: organism-based; details: in vivo
[16] = Toxicity in BALB/c athymic mouse assessed as effect on glomeruli morphology at 150 mg/kg, po by Hematoxylin and eosin staining based analysis; assay type: organism-based; details: in vivo
[17] = Toxicity in BALB/c athymic mouse assessed as effect on proximal tubules morphology at 150 mg/kg, po by Hematoxylin and eosin staining based analysis; assay type: organism-based; details: in vivo
[18] = Toxicity in BALB/c athymic mouse assessed as effect on distal tubules morphology at 150 mg/kg, po by Hematoxylin and eosin staining based analysis; assay type: organism-based; details: in vivo
[19] = Toxicity in BALB/c athymic mouse assessed as effect on interstitium morphology at 150 mg/kg, po by Hematoxylin and eosin staining based analysis; assay type: organism-based; details: in vivo
[20] = Toxicity in BALB/c athymic mouse assessed as effect on blood arteries morphology at 150 mg/kg, po by Hematoxylin and eosin staining based analysis; assay type: organism-based; details: in vivo
[21] = Toxicity in BALB/c athymic mouse assessed as effect on cerebral cortex morphology at 150 mg/kg mg/kg, po by Hematoxylin and eosin staining based analysis; assay type: organism-based; details: in vivo
[22] = Toxicity in BALB/c athymic mouse assessed as effect on alveoli morphology at 150 mg/kg mg/kg, po by Hematoxylin and eosin staining based analysis; assay type: organism-based; details: in vivo
[23] = Toxicity in female BALB/c athymic mouse assessed as effect on bronchial morphology at 150 mg/kg, po by Hematoxylin and eosin staining based analysis; assay type: organism-based; details: in vivo
[24] = Toxicity in female BALB/c athymic mouse assessed as AST level at 150 mg/kg/day, po (reference value: 105.92 +/- 6.41 U/L); assay type: organism-based; details: in vivo
[25] = Toxicity in female BALB/c athymic mouse assessed as ALT level at 150 mg/kg/day, po (reference value: 29.79 +/- 3.15 U/L); assay type: organism-based; details: in vivo
[26] = Toxicity in female BALB/c athymic mouse assessed as ALK PHOS level at 150 mg/kg/day, po (reference value: 78.59 +/- 5.85 U/L); assay type: organism-based; details: in vivo
[27] = Toxicity in female BALB/c athymic mouse assessed as BUN level at 150 mg/kg/day, po (reference value: 10.19 +/- 2.68 mg/dl); assay type: organism-based; details: in vivo
[28] = Toxicity in female BALB/c athymic mouse assessed as bilirubin total level at 150 mg/kg/day, po (reference value: 0.673 +/- 0.01 mg/dl); assay type: organism-based; details: in vivo
[29] = Toxicity in female BALB/c athymic mouse assessed as bilirubin direct level at 150 mg/kg/day, po (reference value: 0.298 +/- 0.07 mg/dl); assay type: organism-based; details: in vivo
[30] = Toxicity in female BALB/c athymic mouse assessed as albumin level at 150 mg/kg/day, po (reference value: 6.31 +/- 0.41 g/dl); assay type: organism-based; details: in vivo
[31] = Toxicity in female BALB/c athymic mouse assessed as total protein level at 150 mg/kg/day, po (reference value: 6.88 +/- 0.15 g/dl); assay type: organism-based; details: in vivo
[32] = Toxicity in female BALB/c athymic mouse assessed as calcium level at 150 mg/kg/day, po (reference value: 8.73 +/- 0.10 mg/dl); assay type: organism-based; details: in vivo
[33] = Toxicity in female BALB/c athymic mouse assessed as sodium level at 150 mg/kg/day, po (reference value: 144.51 +/- 0.85 mEq/L); assay type: organism-based; details: in vivo
[34] = Toxicity in female BALB/c athymic mouse assessed as Chlorine level at 150 mg/kg/day, po (reference value: 105.63 +/- 4.46 mEq/L); assay type: organism-based; details: in vivo
[35] = Toxicity in female BALB/c athymic mouse assessed as WBC count at 150 mg/kg/day, po (reference value: 4.50 +/- 2.20 10^3/uL); assay type: organism-based; details: in vivo
[36] = Toxicity in female BALB/c athymic mouse assessed as mean corpuscular volume at 150 mg/kg/day, po (reference value: 53.06 +/- 0.06 fL); assay type: organism-based; details: in vivo
[37] = Toxicity in female BALB/c athymic mouse assessed as mean corpuscular hemoglobin measured per cell at 150 mg/kg/day, po (reference value: 28.62 +/- 0.08 pg/cell); assay type: organism-based; details: in vivo
[38] = Toxicity in female BALB/c athymic mouse assessed as mean corpuscular hemoglobin concentration at 150 mg/kg/day, po (reference value: 35.86 +/- 0.24 g/dl); assay type: organism-based; details: in vivo

COc1ccc2c(c1OC)C(=O)O[C@@H]2[C@H]1c2c(c(NC(=O)Nc3ccc(Cl)cc3Cl)c3c(c2OC)OCO3)CCN1C
Kd [1]: 42 µM
IC50 [2]: 4.77 µM
IC50 [3]: 6.56 µM
IC50 at 72 h [4]: 338 µM
inhibition [5]: Dose-dependent-effect
Activity [6]: Active
Activity [7]: Active
Activity [8]: 68%
Activity [9]: Active
Activity [10]: Active
Activity [11]: Active
Activity [12]: Active
Activity [13]: Active
Activity [14]: Non-toxic
Activity [15]: Non-toxic
Activity [16]: Non-toxic
Activity [17]: Non-toxic
Activity [18]: Non-toxic
Activity [19]: Non-toxic
Activity [20]: Non-toxic
Activity [21]: Non-toxic
Activity [22]: Non-toxic
Activity [23]: Non-toxic
Activity [24]: 106.86 U/L
Activity [25]: 28.62 U/L
Activity [26]: 78.45 U/L
Activity [27]: 12.11 mg/dL
Activity [28]: 0.56 mg/dL
Activity [29]: 0.32 mg/dL
Activity [30]: 6.19 g/dL
Activity [31]: 6.56 g/dL
Activity [32]: 7.9 mg/dL
Activity [33]: 144.4 mEq/L
Activity [34]: 106.71 mEq/L
Activity [35]: 4.59 10^3 /uL
Activity [36]: 58.1 fL
Activity [37]: 29.7 pg
Activity [38]: 34.74 g/dL
